Test results: patent publication US20080120039A1, “HORMONE AND DRUG CONCENTRATIONS IN THE PORTAL VEIN AND HEPATIC SINUSOIDS” (Entelos, Inc., priority 2005, published 2008)
Where two headings read alike, the source gives them in different places.

Tests used:
[1] = rats; cited from earlier work
[2] = sheep; cited from earlier work
[3] = cited from earlier work
[4] = reported; cited from earlier work
[5] = pigs; cited from earlier work
[6] = Glucagon infusions with somatostatin; metabolic clearance of glucagon; format: in vivo, human
Source text: FIGS. 3A and 3B provide graphs of plasma glucagon concentrations during different glucagon infusion rates in human subjects. FIG. 3A illustrates data from studies that report lower glucagon concentrations during glucagon infusions (Chhibber, et al. Metabolism 49(1):39-46 (2000) and Matsuda, et al. Metabolism 51(9):1111-1119 (2002)) and FIG. 3B illustrates data from studies that report higher glucagon concentrations during glucagon infusions (Nielsen, et al., Diabetes 46(12):2007-2016 (1997) and Andrews, et al., J. Clin. Endocrinol. Metab. 88(1):285-291 (2003)). The equation for the regression line in FIG. 3A is y=0.41x+60.15 with r^2=0.96 and the regression line in FIG. 3B is y=x+69.5 with r=0.97.
Different research groups report considerably different glucagon concentrations in response to plasma glucagon infusions. In FIG. 3A, the regression line yields m=0.00041 min/ml, whereas for the regression line for 3B yields m=0.001 min/ml. These differences lead to considerable differences in predicted portal glucagon concentrations in both fasted and fed conditions, as described below. The MCR for glucagon has been reported to be between 7-14 ml/kg/min; taking the reciprocal of the MCR for a 70 kg individual gives m=0.001-0.002 min/ml. As a result of the variability in the reported measurements for this parameter, two different possibilities are considered in the analyses: one where m=0.00041 and another where m=0.001 min/ml.

[7] = dogs; cited from earlier work
[8] = healthy patients; cited from earlier work
[9] = cited from earlier work; remark: listed apart in the source

glucagon
hepatic glucagon extraction, f [1]: ≈ 0.5 | hepatic glucagon extraction, f [2]: ≈ 0.07 | hepatic glucagon extraction in humans ([3]; Felig et al.): little or no hepatic glucagon extraction | portal glucagon concentration relative to systemic plasma ([3]; reported in the literature): 1.3-3.0 times higher | MCR for glucagon [4]: 7 to 14 mL/kg/min | hepatic glucagon extraction, f [5]: ≈ 0.1 | m as reciprocal of reported MCR ([6]; for a 70 kg individual): 0.001 to 0.002 min/mL | m (slope of plasma glucagon concentration versus infusion rate) ([6]; studies with higher glucagon concentrations (FIG. 3B)): 0.001 min/ml and ≈ 0.001 min/ml | m (slope of plasma glucagon concentration versus infusion rate) ([6]; studies with lower glucagon concentrations (FIG. 3A), about twice the somatostatin rate): 0.00041 min/ml and ≈ 0.0004 min/ml | hepatic glucagon extraction, f [7]: ≈ 0.2

insulin
metabolic clearance rate (MCR) of insulin [8]: 13 to 27 mL/kg/min | m as reciprocal of reported MCR (for a 70 kg patient): 0.0005 to 0.001 min/mL | m (slope of steady-state systemic plasma concentration versus exogenous infusion rate; reciprocal of MCR) (insulin infusions with somatostatin, healthy individuals, studies of FIG. 2, 70 kg individual): 0.0007 min/ml and approximately 0.0007 min/ml | fractional extraction of insulin by the liver, f ([9]; most estimates): 0.5-0.7 | fractional extraction of insulin by the liver, f ([9]; portal catheterization study and mathematical models based on insulin and c-peptide concentrations): ≈ 0.5 | fractional extraction of insulin by the liver, f ([9]; splanchnic balance studies): 0.7
